PMC8498988, “Scaffold Hybridization Strategy Leads to the Discovery of Dopamine D3 Receptor-Selective or Multitarget Bitopic Ligands Potentially Useful for Central Nervous System Disorders” (ACS Chemical Neuroscience, 2021)

Experiments:
[1] = molecular target: 5-HT2AR (Homo sapiens, UniProt P28223); experiment: 5-HT2A IP-1 formation (HEK-h5HT2A cells); conditions: for % inhib., 5-HT2A IP-1 formation: antagonist mode, normalized to the inhibition by 10 μM ketanserin; for functional behavior at 5-HT2AR: in words
5-HT2AR, sequence (P28223 whole entry): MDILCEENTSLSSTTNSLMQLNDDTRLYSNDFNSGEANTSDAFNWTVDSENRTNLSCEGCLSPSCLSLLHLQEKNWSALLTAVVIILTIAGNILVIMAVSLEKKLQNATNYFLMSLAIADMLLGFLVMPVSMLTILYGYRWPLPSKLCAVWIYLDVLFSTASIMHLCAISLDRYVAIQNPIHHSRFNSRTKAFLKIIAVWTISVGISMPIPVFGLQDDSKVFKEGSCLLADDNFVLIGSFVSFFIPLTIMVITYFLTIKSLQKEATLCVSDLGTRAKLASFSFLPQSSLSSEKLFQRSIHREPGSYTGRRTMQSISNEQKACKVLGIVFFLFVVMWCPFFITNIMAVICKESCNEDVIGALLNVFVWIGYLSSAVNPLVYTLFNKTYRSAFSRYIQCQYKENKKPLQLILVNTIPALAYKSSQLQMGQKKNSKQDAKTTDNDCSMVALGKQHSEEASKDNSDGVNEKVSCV
Method: HEK-h5HT2A or HEK-h5HT2C cells are used as the tissue source. The day before the experiment, cells are plated in 24-well plates at a density of 400,000 cells per well using DMEM supplemented with charcoal-stripped FetalClone. Drugs are made up in stimulation buffer supplied in the kit. Medium is removed from the well, test compounds or serotonin or antagonist or buffer is added, and the cells are incubated for 1 h. The cells are lysed for 30 min, and 50 μL of cell lysate is added to the IP-1 plates. After the addition of appropriate antibodies, the plates are incubated for 3 h, washed six times, incubated with the substrate for 20 min, and, after termination of the reaction, the plate is read on a plate reader at 450 nm with a correction at 620 nm.

[2] = molecular target: D2R (Homo sapiens, UniProt P14416); experiment: Radioligand competition binding at human D2R ([3H]N-methylspiperone, HEK293 membranes); design: expressed in transfected cells; host or cells: HEK293; conditions: HEK 293 cells expressing hD2R, read-out: Ki ± SEM, D2R
D2R, sequence (P14416 whole entry): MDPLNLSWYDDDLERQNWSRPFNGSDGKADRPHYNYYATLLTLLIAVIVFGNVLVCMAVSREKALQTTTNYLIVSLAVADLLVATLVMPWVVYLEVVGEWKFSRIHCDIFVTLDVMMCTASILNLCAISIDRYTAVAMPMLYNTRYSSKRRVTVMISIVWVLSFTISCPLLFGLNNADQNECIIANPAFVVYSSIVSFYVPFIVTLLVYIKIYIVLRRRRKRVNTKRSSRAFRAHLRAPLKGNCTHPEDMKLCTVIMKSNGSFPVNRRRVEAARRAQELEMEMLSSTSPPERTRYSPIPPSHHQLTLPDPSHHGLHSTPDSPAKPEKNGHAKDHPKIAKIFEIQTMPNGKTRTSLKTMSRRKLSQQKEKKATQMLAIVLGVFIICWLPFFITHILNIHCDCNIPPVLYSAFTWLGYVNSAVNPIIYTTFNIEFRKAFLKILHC
Method: The novel hybrid derivatives 3–11 were tested at hD2R, hD3R, or hD4R stably expressed in HEK293 cells by competition binding assays, using [^3H]N-methylspiperone as the radioligand, to evaluate their D2-like affinity and subtype selectivity, following the previously reported procedures.[41],[45],[46]
Binding at dopamine D2-like receptors was determined using previously described methods.[41],[45],[46] Membranes were prepared from HEK293 cells stably expressing human D2, D3, or D4, grown in a 50:50 mix of Dulbecco’s minimal essential medium (DMEM) and Ham’s F12 culture media, supplemented with 20 mM HEPES, 2 mM L-glutamine, 0.1 mM nonessential amino acids, 1× antibiotic/antimycotic, 10% heat-inactivated fetal bovine serum, and 200 μg/mL hygromycin (Life Technologies, Grand Island, NY) and kept in an incubator at 37 °C and 5% CO2. Upon reaching 80–90% confluency, the cells were harvested using premixed Earle’s Balanced Salt Solution (EBSS) with 5 μM EDTA (Life Technologies) and centrifuged at 3000 rpm for 10 min at 21 °C. The supernatant was removed, and the pellet was resuspended in 10 mL hypotonic lysis buffer (5 mM MgCl2, 5 mM Tris, pH 7.4 at 4 °C) and centrifuged at 20,000 rpm for 30 min at 4 °C. The pellet was then resuspended in fresh EBSS buffer made from 8.7 g/L Earle’s Balanced Salts without phenol red (US Biological, Salem, MA), 2.2 g/L sodium bicarbonate, pH to 7.4. A Bradford protein assay (Bio-Rad, Hercules, CA) was used to determine the protein concentration, and membranes were diluted to 500 μg/mL and stored at −80 °C for later use. Radioligand competition binding experiments were conducted using thawed membranes. Test compounds were freshly dissolved in 30% DMSO and 70% H2O to a stock concentration of 100 μM. To assist the solubilization of free-base compounds, 10 μL of glacial acetic acid was added along with DMSO. Each test compound was then diluted into 13 half-log serial dilutions using 30% DMSO vehicle; the final test concentrations ranged from 10 μM to 10 pM. The previously frozen membranes were diluted in fresh EBSS to a 100 μg/mL (for D2 or D3) or 200 μg/mL (D4) stock for binding. Radioligand competition experiments were conducted in glass tubes containing 300 μL of fresh EBSS buffer, 50 μL of diluted test compound, 100 μL of membranes (10 μg of total protein for D2 or D3 and 20 μg of total protein for D4), and 50 μL of [^3H]N-methylspiperone (0.4 nM final concentration; PerkinElmer). Nonspecific binding was determined using 10 μM butaclamol (Sigma-Aldrich, St. Louis, MO), and total binding was determined with the 30% DMSO vehicle. All compound dilutions were tested in triplicate and the reaction was incubated for 1 h at room temperature. The reaction was terminated by filtration through Whatman GF/B filters, presoaked for 1 h in 0.5% polyethylenimine, using a Brandel R48 filtering manifold (Brandel Instruments, Gaithersburg, MD). The filters were washed three times with 3 mL of ice-cold EBSS buffer and transferred to scintillation vials. CytoScint liquid scintillation cocktail (3 mL, MP Biomedicals, Solon, OH) was added, and vials were counted using a PerkinElmer Tri-Carb 2910 TR liquid scintillation counter (Waltham, MA).

[3] = molecular target: T1, 5-HT2CR (Homo sapiens, UniProt P28335); experiment: Radioligand binding assay at human 5-HT2CR ([125I]DOI, HEK cells); design: expressed in transfected cells; host or cells: HEK (HEK-h5HT2C); conditions: HEK cells expressing h5-HT2CR, read-out: Ki ± SEM, 5-HT2CR
T1 sequence (P28335 33-458): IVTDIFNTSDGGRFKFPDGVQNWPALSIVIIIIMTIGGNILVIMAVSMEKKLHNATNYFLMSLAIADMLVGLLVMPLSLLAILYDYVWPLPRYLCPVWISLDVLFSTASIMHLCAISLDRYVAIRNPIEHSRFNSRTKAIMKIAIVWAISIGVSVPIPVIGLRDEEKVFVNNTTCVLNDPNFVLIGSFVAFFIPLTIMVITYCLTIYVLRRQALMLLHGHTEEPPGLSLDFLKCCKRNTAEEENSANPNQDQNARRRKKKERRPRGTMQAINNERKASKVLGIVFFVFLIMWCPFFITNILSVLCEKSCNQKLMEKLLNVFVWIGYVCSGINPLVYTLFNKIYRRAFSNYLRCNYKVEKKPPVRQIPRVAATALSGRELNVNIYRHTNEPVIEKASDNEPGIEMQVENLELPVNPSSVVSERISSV
Method: Human embryonic kidney cells expressing human 5HT2AR (HEK-h5HT2A) or human 5HT2CR (HEK-h5HT2C) are used. The cells are grown until confluent on 15 cm plates. The medium is removed, and the cells are washed with phosphate-buffered saline (PBS), scraped into 2 mL PBS, and frozen at −20 °C until needed. Cell suspension is thawed, 10 mL assay buffer (50 mM Tris, pH 7.4 at 37 °C, with 0.1% ascorbic acid and 5 mM CaCl2) is added per plate of cells, and polytronned at setting 6 for 5 s. The homogenate is centrifuged at 15,500 rpm for 20 min. To minimize the residual 5HT concentration, the pellet is resuspended in buffer, polytronned, and centrifuged as mentioned above. The final pellet is resuspended in 2 mL buffer/plate of cells. The binding assay includes 50 μL drug, 5-HT or buffer, 50 μL cell homogenate, 50 μL [^125I]DOI (∼0.1 nM), and buffer in a final volume of 250 μL. Specific binding is defined as the difference between total binding and binding in the presence of 10 μM 5HT. The reaction is incubated for 1 h at 37 °C and terminated by filtration through Wallac A filter mats presoaked in 0.05% polyethylenimine using a Tomtec 96-well harvester. The radioactivity remaining on filters is determined using a Wallac betaplate reader.

| SMILES | % inhib., 5-HT2A IP-1 formation [1] | functional behavior at 5-HT2AR [1] | Ki [2] | Ki [3] |
| --- | --- | --- | --- | --- |
| O=C(NCCCCN1CCN(c2cccc(Cl)c2Cl)CC1)C1COC(c2ccccc2)(c2ccccc2)CO1 (centres unmarked) [compound 6, N-(4-(4-(2,3-Dichlorophenyl)piperazin-1-yl)butyl)-5,5-diphenyl-1,4-dioxane-2-carboxamide] | (88.6) % | efficacious D2R and 5-HT2AR antagonists with high and low potency, respectively | 28.7 ± 5.4 nM | 90 ± 16 nM |
| O=C(NCCCCN1CCN(c2cccc(Cl)c2Cl)CC1)C1COc2ccccc2O1 (centres unmarked) [compound 9, N-(4-(4-(2,3-Dichlorophenyl)piperazin-1-yl)butyl)-2,3-dihydrobenzo[b][1,4]dioxine-2-carboxamide] | (86.8) % | efficacious D2R and 5-HT2AR antagonists with high and low potency, respectively | 46.4 ± 5.9 nM | 97 ± 25 nM |
| O=C(NCCCCN1CCN(c2cccc(Cl)c2Cl)CC1)C1COCC(c2ccccc2)(c2ccccc2)O1 (centres unmarked) [compound 3, N-(4-(4-(2,3-Dichlorophenyl)piperazin-1-yl)butyl)-6,6-diphenyl-1,4-dioxane-2-carboxamide] | (45.4) % |  | 342 ± 105 nM | 642 ± 80 nM |
